Tests used:
mouse T lymphocytes = assay: T-cell proliferation assay (ionomycin plus PMA induced T-cell stimulation, tritiated thymidine uptake); assay type: cell-based, C57Bl/6 mice; settings: result in words
Procedure: The principle of this assay is to measure the proliferation of mouse T lymphocytes stimulated with the combination of ionomycin plus PMA. A positive sample in this assay will inhibit T-cell proliferation, as indicated by reduced tritiated thymidine uptake.
An equal volume of methanol was added to a 1 ml sample of each of the above broths producing a 1:2 whole broth equivalent (WBE). The samples were centrifuged at 3,000 rpm for 5 minutes and the resulting supernatants were used as starting materials for the T-cell proliferation assay. […]
Purified T lymphocytes were resuspended at 10⁶ cells/ml in complete culture medium composed of RPMI 1640 medium with 10% heat-inactivated fetal calf serum, […], 1 mM sodium pyruvate, 2 x 10⁻⁵ M 2-mercaptoethanol and 50 µg/ml gentamycin. […] The proliferation of T lymphocytes was assessed by measurement of tritiated thymidine incorporation. […] Radioactivity of filter discs corresponding to individual wells was measured by standard liquid scintillation counting methods (Betacounter). Mean counts per minute of replicate wells were calculated and the results expressed as percent inhibition of tritiated thymidine uptake (proliferation) as follows: [formula]

[1] = Physical characteristics: solubility; assay type: physicochemical; settings: methanol
From the text: White amorphous powder • 2. […] Molecular weight determined by mass spectroscopy of 791.4784, consistent with an empirical formula of C₄₃H₆₉NO₁₂

SMILES: CC[C@@H]1/C=C(\C)C[C@H](C)C[C@H](OC)[C@H]2O[C@@](O)(C(=O)C(=O)N3CCCC[C@H]3C(=O)O[C@H](/C(C)=C/[C@@H]3CC[C@@H](O)[C@H](OC)C3)[C@H](C)[C@@H](O)CC1=O)[C@H](C)C[C@@H]2OC [ascomycin, reference compound]
- immunosuppressive activity (mouse T lymphocytes; for ascomycin no test is named): exhibits immunosuppressive activity

SMILES: CC[C@@H]1/C=C(\C)C[C@H](C)C[C@H](OC)[C@H]2O[C@@](O)(C(=O)C(=O)N3CCCC[C@H]3C(=O)O[C@H](/C(C)=C/[C@@H]3CC[C@@H](O)[C@H](OC)C3)[C@H](C)[C@@H](O)CC1=O)[C@H](C)C[C@@H]2OC [immunomycin]
- inhibition of T-cell activation (mouse T lymphocytes): positive inhibition of T-cell activation
- Solubility [1]: Solubility in methanol

Source: EP0323865A1, “Novel immunosuppressant agent” (Merck & Co., Inc., priority 1988, dated 1989)
